In patent publication US20020035061A1, “COMPOSITIONS AND METHODS FOR TREATING INFECTIONS USING CATIONIC PEPTIDES ALONE OR IN COMBINATION WITH ANTIBIOTICS” (priority 1996, published 2002):

Columns and labels:
[1] = system: various bacterial strains; assay: Broth dilution assay (MIC); type: cell-based
Protocol: Typically 100 μl of calcium and magnesium supplemented Mueller Hinton broth is dispensed into each well of a 96-well microtitre plate and 100 μl volumes of two-fold serial dilutions of the peptide are prepared across the plate. One row of wells receives no peptide and is used as a growth control. Each well is inoculated with approximately 5×10^5 CFU of bacteria and the plate is incubated at 35-37° C. for 16-20 hours.
For example, MIC values in μg/ml are established by broth dilution assay (Table 13) or by agarose dilution assay (Table 14) for a series of cationic peptides against various bacterial strains.

[2] = system: E. coli strain ML-35 inner membrane; type: cell-based; settings: cells pre-incubated with valinomycin
[3] = system: MCF-7ADR, breast carcinoma, multidrug resistant; assay: Cell death by Cytotox (Promega) lactate dehydrogenase release; type: cell-based; settings: LDH release
Summary of the method: (§1)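 Panel included normal blood lymphocytes and endothelial cells as well as leukemia lines. Test agents: APO-peptide variants versus unmodified parent sequences, with cytotoxicity taken from LDH in supernatant.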

[4] = system: P388ADR, lymphocytic leukemia, multidrug resistant; assay: as above; type: cell-based; settings: LDH release
Summary of the method: as §1

P. mirabilis = assay: Agarose dilution assay (MIC); type: cell-based; settings: P. mirabilis PM002
Candida = assay: Agarose dilution assay (MIC) against Candida; type: cell-based
Liposome dye release = settings: egg PC liposomes
Protocol: In this example, a dye pair consisting of the fluorescent molecule 8-aminonapthalene-1,3,6-trisulfonic acid (ANTS) and its quencher molecule p-xylene-bis-pyridinium bromide (DPX) are used. The mixture of free dye molecules, dye free liposomes, and liposomes containing encapsulated ANTS-DPX are separated by size exclusion chromatography. In the assay, the test peptide is incubated with the ANTS-DPX containing liposomes and the fluorescence due to ANTS release to the outside of the liposome is measured over time.
Using this assay, peptide activity, measured by dye release, is shown to be extremely sensitive to the composition of the liposomes at many liposome to peptide ratios (L/P) (FIG. 7). […] This […] selectivity may mimic that observed […] for bacterial cells in the presence of mammalian cells.
ANTS/DPX can be replaced with fluorescein isothiocyanate-labeled dextran (FD-4), molecular weight 4,400, in the egg PC liposomes.

ILKKWPWWPWRRK [MBI 11CN]
MIC ([1]; A. calcoaceticus 8191): 256 µg/mL | MIC ([1]; E. cloacae 13047): >128 µg/mL | MIC ([1]; E. coli 25922): 128 µg/mL | MIC ([1]; E. coli DH1): 64 µg/mL | MIC ([1]; E. coli ECO003): 64 µg/mL | MIC ([1]; E. coli KL4): 64 µg/mL | MIC ([1]; E. faecalis 29212): 64 µg/mL | MIC ([1]; K. pneumoniae 13883): >128 µg/mL | MIC ([1]; K. pneumoniae B44): 64 µg/mL | MIC ([1]; P. aeruginosa 27853): >128 µg/mL | MIC ([1]; P. aeruginosa 8509041): 256 µg/mL | MIC ([1]; P. aeruginosa 9308077): 128 µg/mL | MIC ([1]; P. aeruginosa 9503024): >256 µg/mL | MIC ([1]; P. aeruginosa H650): 256 µg/mL | MIC ([1]; P. aeruginosa H652): 256 µg/mL | MIC ([1]; S. aureus 25923): 32 µg/mL | MIC ([1]; S. aureus 27217): 64 µg/mL | MIC ([1]; S. aureus 29213): 32 µg/mL | MIC ([1]; S. aureus 33593): 64 µg/mL | MIC ([1]; S. aureus 8402093): 32 µg/mL | MIC ([1]; S. aureus 8809014): 32 µg/mL | MIC ([1]; S. aureus 8809025): 64 µg/mL | MIC ([1]; S. epidermidis 14990): 8 µg/mL | MIC ([1]; S. maltophilia 13637): 128 µg/mL | MIC ([1]; S. maltophilia H361): 64 µg/mL | MIC ([1]; S. marcescens 13880): >128 µg/mL | MIC ([1]; S. marcescens B21): >256 µg/mL | ONPG hydrolysis diminished compared to no pre-incubation [2]: approximately 50% | LC50 ± S.E., MCF-7 ADR [3]: 17 ± 1 µg/mL | LC50 ± S.E., P388 ADR [4]: 25 µg/mL | MIC (P. mirabilis): >128 µg/mL | MIC (Candida; C. albicans CA001): 128 µg/mL | MIC (Candida; C. albicans CA002): 64 µg/mL | MIC (Candida; C. albicans CA003): 128 µg/mL | MIC (Candida; C. albicans CA004): 64 µg/mL | MIC (Candida; C. albicans CA005): 128 µg/mL | MIC (Candida; C. albicans CA006): 128 µg/mL | MIC (Candida; C. albicans CA007): 128 µg/mL | MIC (Candida; C. albicans CA008): 64 µg/mL | MIC (Candida; C. albicans CA009): 64 µg/mL | MIC (Candida; C. albicans CA010): 128 µg/mL | MIC (Candida; C. albicans CA011): 64 µg/mL | MIC (Candida; C. albicans CA012): 128 µg/mL | MIC (Candida; C. albicans CA013): 128 µg/mL | MIC (Candida; C. albicans CA014): 64 µg/mL | MIC (Candida; C. albicans CA015): 128 µg/mL | MIC (Candida; C. albicans CA016): 128 µg/mL | MIC (Candida; C. albicans CA017): 128 µg/mL | MIC (Candida; C. albicans CA018): 128 µg/mL | MIC (Candida; C. albicans CA019): 128 µg/mL | MIC (Candida; C. albicans CA020): 128 µg/mL | MIC (Candida; C. albicans CA021): 128 µg/mL | MIC (Candida; C. albicans CA022): 32 µg/mL | MIC (Candida; C. albicans CA023): 128 µg/mL | MIC (Candida; C. albicans CA024): 16 µg/mL | MIC (Candida; C. glabrata CGL001): >128 µg/mL | MIC (Candida; C. glabrata CGL002): >128 µg/mL | MIC (Candida; C. glabrata CGL003): >128 µg/mL | MIC (Candida; C. glabrata CGL004): >128 µg/mL | MIC (Candida; C. glabrata CGL005): >128 µg/mL | MIC (Candida; C. glabrata CGL009): >128 µg/mL | MIC (Candida; C. glabrata CGL010): >128 µg/mL | MIC (Candida; C. krusei CKR001): 0.5 µg/mL | MIC (Candida; C. tropicalis CTR001): 4 µg/mL | MIC (Candida; C. tropicalis CTR002): 4 µg/mL | MIC (Candida; C. tropicalis CTR003): 8 µg/mL | MIC (Candida; C. tropicalis CTR004): 4 µg/mL | MIC (Candida; C. tropicalis CTR005): 4 µg/mL | MIC (Candida; C. tropicalis CTR006): 16 µg/mL | MIC (Candida; C. tropicalis CTR007): 16 µg/mL | MIC (Candida; C. tropicalis CTR008): 8 µg/mL | MIC (Candida; C. tropicalis CTR009): 8 µg/mL | FD-4 (MW 4,400) release (Liposome dye release): No increase in FD-4 fluorescence
